Laboratory results reported in patent US20190030139A1, “USP10 MODULATION OF AMPK AND MTOR” (MAYO FOUNDATION FOR MEDICAL EDUCATION AND RESEARCH, priority 2016, published 2019).

Tests used:
AMPK [1] = assay: Immunoblot of AMPK activation in HCT116 cells treated with Spautin-1; assay type: cell-based; conditions: indicated concentration of Spautin-1, immunoblot (FIG. 1I)
Description: FIG. 1A is a picture of an immunoblot showing the effect of USP10 knockdown on AMPK activation. HCT116 cells were infected with lentivirus encoding the indicated shRNAs. Cell lysates were immunoblotted as indicated. FIGS. 1B and 1C are a picture (FIG. 1B) and a graph (FIG. 1C) showing Oil-Red-O staining of HCT116 cells with or without shRNA knockdown of USP10. Control or USP10 knockdown HCT116 cells were incubated in medium supplemented with 200 μM sodium oleate overnight (20 hours) and fixed with formalin. The intracellular lipid droplet abundance was assessed by Oil-Red-O staining. The results represent the means (±SEM) of three independent experiments. **, p<0.01. FIG. 1D is a graph plotting lactate concentration in HCT116 cells. Lactate production was measured after incubation of control and USP10 knockdown HCT116 cells in medium for 48 hours. […] FIG. 1E is a graph plotting relative expression of aldoa, ldha, and pdkl mRNA in control or USP10 knockdown HCT116 cells, as determined by qPCR. Transcript levels were determined relative to actin mRNA levels, and normalized relative to control cells. […] The intracellular lipid droplet abundance was assessed by Oil-Red-O staining. […] The relative expression of aldoa, ldha, and pdkl mRNA in the indicated cells was determined by qPCR. Transcript levels were determined relative to actin mRNA levels, and normalized relative to control cells. […]

cancer cells = assay: Survival of cancer cells with and without USP10 after treatment with everolimus; assay type: cell-based
Source text: FIGS. 12A and 12B are pictures of immunoblots from co-immuno-precipitation assays showing that USP10 interacts with mTOR. […] FIG. 12D is a graph plotting survival of cancer cells with and without USP10, after treatment with the mTOR inhibitor, everolimus. […] FIG. 12E is a graph plotting survival of cancer cells with and without USP10 knockdown by shRNA, after treatment with everolimus.

Ub-AMC = assay: In vitro deubiquitinase enzymatic assay with Ub-AMC; assay type: biochemical; conditions: purified USP10 incubated with or without active AMPK (FIG. 9A)
Description: In vitro deubiquitinase enzymatic assay—In vitro enzymatic assays using ubiquitin-7-amido-4-methylcoumarin (Ub-AMC; U-550; Boston Biochem) were performed in 50-100 μl reaction buffer (20 mM HEPES-KOH [pH 7.8], 20 mM NaCl, 0.1 mg/ml ovalbumin [A7641; Sigma], 0.5 mM EDTA, and 10 mM DTT) at 25° C. Fluorescence was monitored in an INFINITE® M1000 PRO Fluorometer (TECAN).

AMPK [2] = assay: AMPK in vitro kinase assay (32P incorporation into peptides); assay type: biochemical
Description: AMPK in vitro kinase assay—Purified AMPK (Upstate Biotechnology) was incubated with various substrates (0.5 μg) in kinase reaction buffer (15 mM HEPES, pH 7.0, 1 mm dithiothreitol, 18.75 mM MgCl2, 1.25 mM EGTA, and 125 μM ATP and 12.5 μCi of radiolabeled ATP, with or without 150 μM AMP, at 30° C. for 30 minutes. The product was separated by SDS-PAGE and subjected to autoradiography. Phosphorylation was detected by incorporation of radiolabeled [γ-32P] ATP. To study the stoichiometry of phosphorylation of the USP10 S76 [TLPRTPSYSISST (SEQ ID NO:19), synthesized by Peptide 2.0] and SAMS (Abcam) peptides by AMPK, the peptides (20 μM) were individually incubated in 100 μl of reaction buffer at 30° C. Aliquots (10 μl) were removed at various times to measure ^32P incorporation.

ubiquitinated AMPKα = assay: In vitro deubiquitination of AMPKα; assay type: biochemical; conditions: bacterially-expressed USP10, ubiquitinated AMPKα substrate (FIGS. 3H and 4C)
Source text: In vitro deubiquitination of AMPKα—To prepare ubiquitinated AMPKα as the substrate for the in vitro deubiquitination assay, HCT116 cells were transfected with both HA-Ub and FLAG-AMPKα. […] Following extensive washing with the FLAG-lysis buffer, proteins were eluted with FLAG-peptides (Sigma). The recombinant His-USP10 and USP10CA polypeptides were expressed in BL21 cells and purified with the His-tag purification column (Novagen). For the in vitro deubiquitination assay, ubiquitinated AMPK protein was incubated with recombinant USP10 in a deubiquitination buffer (50 mM Tris-HCl pH 8.0, 50 mM NaCl, 1 mM EDTA, 10 mM DTT, 5% glycerol) overnight at 16° C.

For `Fc1ccc(CNc2ncnc3ccc(F)cc23)cc1` [Spautin-1], the AMPK activation (AMPK [1]) was “largely inhibited”.
With `CO[C@H]1C[C@@H]2CC[C@@H](C)[C@@](O)(O2)C(=O)C(=O)N2CCCC[C@H]2C(=O)O[C@H]([C@H](C)C[C@@H]2CC[C@@H](OCCO)[C@H](OC)C2)CC(=O)[C@H](C)/C=C(\C)[C@@H](O)[C@@H](OC)C(=O)[C@H](C)C[C@H](C)/C=C/C=C/C=C/1C` [everolimus] the “survival of cancer cells” value (cancer cells; USP10 shRNA knockdown vs control shRNA (FIG. 12E)) was “greater effect on survival of USP10 knockdown cells than on cells treated with a control shRNA” and the “survival of cancer cells” value (cancer cells; cells with vs without USP10 (FIG. 12D)) was “decreased in the absence of USP10”.
In the case of “S76A mutant: USP10 with S76 mutated to Ala”, the “deubiquitinase activity toward Ub-AMC” value (Ub-AMC) is reported as “remained low”.
With “USP10 peptide: synthesized USP10 S76 peptide TLPRTPSYSISST (SEQ ID NO:19) (listed as Homo sapiens)” the “maximal stoichiometry of phosphorylation by AMPK” value (AMPK [2]; after 30 minutes of incubation, calculated from FIG. 8D data (FIG. 8E)) was 0.46±0.04 mol/mol and the “initial rate of phosphorylation by AMPK” value (AMPK [2]; peptide 20 μM, 30° C., mean ±SEM of three experiments (FIG. 8D)) was 155±36 pmol/min/reaction mix.
In the case of “WT USP10: recombinant wild type USP10 deubiquitinase (SEQ ID NO:2), bacterially expressed”, the “deubiquitination of AMPKα in vitro” value (ubiquitinated AMPKα) is reported as “removed ubiquitin chain from AMPKα”.
In the case of “phosphorylated USP10: USP10 phosphorylated using active AMPK in vitro”, the “deubiquitinase activity toward Ub-AMC” value (Ub-AMC) is reported as “much higher activity toward Ub-AMC”.
